# PubChem BioAssay AID588385 (NMMLSC, 2011)
# The source made the active and inactive calls.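 How the source made its calls: active means EC50 at most 10 µM,% response shifting 30 points or more across doses, valid curve fit; inactive means the rest.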
# Biological target: Cell division control protein 42 homolog (Homo sapiens) (UniProt P60953)
# Experiment: wild-type Cdc42 fluorescent nucleotide binding blockers – biochemical, wildtype, bead multiplex, flow cytometry, round 1, SAR follow-up (AID 588385)
# Conditions: GST-Cdc42 wt beads, Bodipy-GTP binding
# Sequence of Cell division control protein 42 homolog (Homo sapiens) (P60953 whole entry, looked up): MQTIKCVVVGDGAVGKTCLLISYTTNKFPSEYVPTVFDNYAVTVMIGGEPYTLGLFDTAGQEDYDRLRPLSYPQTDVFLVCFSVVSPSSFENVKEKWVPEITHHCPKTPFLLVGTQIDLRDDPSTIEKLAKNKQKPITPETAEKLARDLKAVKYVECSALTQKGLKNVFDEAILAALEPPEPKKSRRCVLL
row,SMILES,EC50
1,CC1(C)CCc2sc(NC(=S)NC(=O)c3ccccc3)c(C(=O)O)c2C1,0.168 µM
2,CC1(C)Cc2c(sc(NC(=S)NC(=O)c3ccccc3F)c2C(=O)O)CO1,0.08 µM
3,CC1(C)Cc2c(sc(NC(=S)NC(=O)c3ccccc3Br)c2C(=O)O)CO1,0.091 µM
4,COc1ccc(C(=O)NC(=S)Nc2sc3c(c2C(=O)O)CC(C)(C)OC3)cc1,0.501 µM
5,CC1Cc2c(sc(NC(=S)NC(=O)c3ccccc3)c2C(=O)O)CO1 (stereo unspecified),0.405 µM
6,O=C(NC(=S)Nc1sc2c(c1C(=O)O)CCOC2)c1ccccc1,0.04 µM
7,COc1cccc(C(=O)NC(=S)Nc2sc3c(c2C(=O)O)CC(C)(C)OC3)c1,0.082 µM
8,CC1(C)Cc2c(sc(NC(=S)NC(=O)c3cccc(F)c3)c2C(=O)O)CO1,0.319 µM
9,CC1(C)Cc2c(sc(NC(=S)NC(=O)c3ccc(Br)cc3)c2C(=O)O)CO1,0.452 µM

# Same assay, conditions: GST-Cdc42 wt beads, Bodipy-GTP binding, at 100 µM (top of the series)
row,SMILES,% response (lower = inhibition)
1,CCOC(=O)c1c(NC(=O)NC(C)(C)C)sc2c1CCN(C)C2,inactive
2,CC(C)(C)OC(=O)c1c(NC(=S)NC(=O)c2ccccc2)sc2c1CCOC2,inactive
3,CCOC(=O)c1c(NC(=O)Nc2ccc(C)cc2)sc2c1CCN(C)C2,inactive
4,CC1(C)Cc2c(sc(NC(=O)Cc3ccccc3)c2C(=O)O)CO1,inactive
5,COC(=O)c1c(NC(=S)NC(=O)c2ccccc2)sc2c1CC(C)(C)OC2,inactive
6,CC1(C)Cc2c(sc(NC(=O)NC(=O)c3ccccc3)c2C(=O)O)CO1,inactive
7,CCOC(=O)c1c(NC(=S)Nc2ccccc2)sc2c1CC(C)(C)OC2,inactive
8,CCOC(=O)c1c(NC(=S)NC(=O)c2ccccc2)sc2ccccc12,inactive
9,CCOC(=O)c1c(N)sc2ccccc12,inactive
10,CC1(C)Cc2c(sc(NC(=S)NC(=O)c3cccc(Br)c3)c2C(=O)O)CO1,inactive
11,COC(=O)c1c(N)sc2c1CC(C)(C)OC2,inactive
12,CCOC(=O)c1c(NC(=O)Nc2ccc(F)cc2)sc2c1CCN(C)C2,inactive
13,CN1CCc2c(sc3nc(Nc4ccc(F)cc4)oc(=O)c23)C1,inactive
14,CN1CCc2c(sc(NC(=O)Nc3ccc(F)cc3)c2C(=O)O)C1,inactive
15,Cc1ccc(NC(=O)Nc2sc3c(c2C(=O)O)CCN(C)C3)cc1,inactive
16,Cc1ccc(Nc2nc3sc4c(c3c(=O)o2)CCN(C)C4)cc1,inactive
17,CC1(C)Cc2c(sc(NC(=S)Nc3ccccc3)c2C(=O)O)CO1,inactive
